Results on three compounds are retold here after patent US20010011128A1, “Hex II tumor-specific promoter and uses thereof” (priority 1996, published 2001).

Assay [1] concerns HK II promoter in NCI-H661 cells. Put plainly: Regulation of HK II promoter (pHexII4557 CAT) by glucose, insulin, glucagon. The note with it: NCI-H661 transfected with pHexII4557 CAT; 25 mM glucose, 100 nM insulin, 10 μM glucagon. Format: cell-based, human.
Experimental: Transient transfections were performed using Lipofect AMINE (Canadian Life Technologies. Burlington, ON, Canada). Seventy to 80% confluent cells were transfected with 1 μg of the reporter plasmid pCAT, pMUCI-1583 CAT, pHexII4557 CAT, or pRSV CAT (Rous sarcoma virus long terminal repeat promoter) (ATCC). One microgram of pSV2-Pgalactosidase (Promega) was cotransfected as an internal control for variations in transfection efficiency in serum-free Dulbecco's modified Eagle's medium (DMEM). The medium was replaced with fresh growth medium after 6 hr. In promoter regulation experiments, the cells were transfected in RPMI 1640 glucose-deficient medium. Six hours after transfection, the medium was replaced with RPMI 1640 glucose-deficient medium supplemented with 100 nM bovine insulin. 25 mM glucose, or 10 μM glucagon (Sigma Aldrich Canada. Oakville. ON, Canada) or a combination of insulin and glucose, supplemented with 1 mM sodium pyruvate and 100 μM glucose. […] The protein concentration of the extracts was measured using the Bradford protein assay from Bio-Rad (Mississauga, ON. Canada) and equal amounts were assayed in the chloramphenicol acetyltransferase (CAT) and β-galactosidase assays, which were carried out as described by the manufacturer (Promega). Percent acetylation was measured using the Bio-Rad Gelscan Phos-phoimager and the Molecular Analyst software program. […]
In assay [2] the test system is H661 non-small cell lung carcinoma cells. Put plainly: CAT reporter gene assay, Hex II promoter activation (first series). It is filed as cell-based, human. The note with it: treatment of the transfectants. As for the experimental part: Transient transfections were performed using lipofectamine according to the manufacturer's recommendations (GIBCO-BRL). Cells were plated the day before transfection to give 60% confluency in 6-well plates. The p1583/+33MUC1.CAT or pHex4557.CAT vectors were transfected along with pSV2lacZ to determine promoter activity. 1 ug of each plasmid were used for each well. All conditions assayed were done in duplicate. The plasmids pRSV.CAT and promoterless pCAT were used as positive and negative controls, respectively. Cells extracts were prepared 48 hours after transfection and β-galactosidase activity was assayed to compensate for variations in transfection efficiency. CAT activity was determined from 75-100 ug of proteins. The reaction was carried out with 0.1 uCi of ^14C-labeled chloramphenicol in a 100 ul reaction at 37° C. for 4 hrs.
On the technique in general: Reporter assays use an easily measured gene product as a stand-in for the process of interest.

The subject of a further assay is HK II mRNA in NHBECs. Put plainly: Ribonuclease protection assay of HK II mRNA. The note with it: 25 mM glucose, 100 nM insulin, 10 μM glucagon, 12 hr. It is filed as cell-based, human. As for the experimental part: For regulation studies, cells were grown to subconfluence in 75-cm^2 flasks, starved in serum-free, glucose-deficient RPMI 1640 medium (Canadian Life Technologies) for 18 hr, and induced in 25 mM glucose, 100 nM insulin, and 10 μM glucagon (Sigma Aldrich Canada) for 12 hr. RNA was extracted from cells using RNAzol (Tel-Test, Friendswood, Tex.) as described by the manufacturer. Contaminating DNA was digested with 5-10 units of DNase I (Pharmacia Biotech) in 10 mM MgCl2, 1 mM dithiothreitol (DTT), […] of RNA Guard (Pharmacia Biotech), 50-80 μl of total RNA at 1 μg/μl for 30 min at 37° C., followed by precipitation of total RNA.
The HK II probe (0.1 fmol) and the human β-actin probe (2 fmol) were simultaneously hybridized to 30 μg of total RNA using the RPA II kit (Ambion, Austin, Tex.) according to the manufacturer recommendations. Probes were prepared by in vitro transcription using the MAXIscript kit (Ambion) and [α-^32P]UTP (6000 Ci/mmol, 40 mCi/ml). HK II (nucleotides 1500 to 1803 of HK II cDNA; GenBank Z-16376) was inserted in the pDP18-T7/T3 vector (Ambion). The template was cut with KpnI at the 5′ end of the insert and transcribed toward that site from the T7 promoter to produce a 430-bp transcript. The HK II-protected fragment is 303 bp. […] Quantitation was performed using the NIH Image 1.67b densitometry software.

Assay [3] can be described thus: MTT cell viability assay, pΔE1sp1B Hex TK transfectants treated with gancyclovir. It is filed as cell-based. The note with it: GCV 10 or 25 ug/ml, controls GCV alone or plasmid only. Here is the method:
Cells in the logarithmic phase of growth were resuspended at a concentration of 2×10^5 cells/ml. 2 ml/well were plated in 6-well plates. Plates were incubated for 24 h at 37° C. in 5% CO2. Subsequently, cells were transfected with the pΔE1sp1B Hex TK plasmid as described above. […] Each condition was done in triplicate. Cells survival was calculated in the treated population as a percentage of controls. Controls are cells transfected with the plasmid alone or treated with the drug alone. MTT assays was performed two days following treatment. The formazan crystals were dissolved in […] (Fisher) and glycine buffer (0.1 M glycine-0.1 M NaCl, pH 10.5). The formazan product formed by viable cells was quantitated by measuring the absorbance at a wavelength of 570 nm.
In general terms: Tetrazolium dyes change colour on reduction, which living cells bring about.

For “insulin: bovine insulin, regulator of glucose metabolism”, the “HK II promoter activation, increase over basal” value in assay [1] is listed as “did not lead to significant differences”.
For “glucagon: regulator of glucose metabolism, physiological inhibitor of Hex II”, the “effect on Hex II promoter activation” value in assay [2] was “did not inhibit promoter activation”. For the same compound, the “HK II promoter activation, increase over basal” value in assay [1] is on record as “did not lead to significant differences”. The “HK II mRNA level relative to basal” value in the assay on HK II mRNA in NHBECs is “repressed HK II expression”.
For `Nc1nc(O)c2ncn(COC(CO)CO)c2n1` [GCV, gancyclovir], the “cell survival less than control cells” value in assay [3] is reported as 50%.
